Measurements published in patent publication US20120190868A1, “SUBSTITUTED BENZOCHALCOGENOACENE COMPOUND, THIN FILM COMPRISING THE COMPOUND, AND ORGANIC SEMICONDUCTOR DEVICE INCLUDING THE THIN FILM” (NATIONAL UNIVERSITY CORPORATION NAGOYA UNIVERSITY, priority 2009, published 2012).

Experiment: Solubility of the compound in a solvent (preparation of solution composition)
Type: physicochemical
Method: The solution composition containing the compound [5] in 0.5 wt % concentration was prepared by dissolving the compound [5] manufactured in Example 1 in tetrahydrofuran.
On the substrate obtained by a similar procedure to Example 8, a 0.5 wt % dichlorobenzene solution of the compound [14] heated at 100° C. was applied by the spin coating method and dried on a hot plate of 120° C. for 30 minutes to result in the formation of a thin film containing the compound and having a thickness of about 30 nm.

Row | concentration of solution composition prepared by dissolving the compound (solubility in a solvent) (tetrahydrofuran) [wt %] | concentration of solution of the compound (solubility in a solvent) (dichlorobenzene, heated at 100° C.) [wt %] | SMILES
1 | 0.5 | – | CCCCCCc1ccc2c(c1)sc1c2sc2c3ccc(CCCCCC)cc3sc21 [[5]]
2 | – | 0.5 | CCCCCCCCCCCCc1ccc2c(c1)sc1c2sc2c3ccc(CCCCCCCCCCCC)cc3sc21 [[14]]
